Usually melting point stands for the temperature of the solid-liquid transition. For the compound `Nc1ccc(C(=O)NC(CCC(=O)O)C(=O)O)cc1` (stereo not given), the melting point amounted to 173 °C.

On to `C[C@@H]1N[C@H](C(=O)O)CC2c3ccccc3NC21` (stereo not given in full), for which the melting point was 286 °C.

The compound `CC1(C)OC(=O)C(=Cc2ccc(-c3ccc(Cl)cc3)o2)C(=O)O1` came in with a melting point of 109 °C.

In turn, `COc1cc(O)c(C(C)=O)c(OC)c1` showed a melting point of 82 °C.

`O=C(O)C(Cc1ccc([N+](=O)[O-])cc1)c1ccccc1` (stereo not given) showed a melting point of 152 °C.

`Nc1c(Cl)cc(C(F)(F)F)cc1Cl` had a melting point of 36 °C.

`O=C1c2ccccc2CC2C=Cc3ccccc3N12` (stereo not given): the melting point worked out at 91 °C.

Compound `FC(F)C(F)(F)OCC(Cn1cncn1)c1ccc(Cl)cc1Cl` (stereo not given) registered a melting point of 6 °C.

The compound `CC(=O)c1cc2cc3c4c(c2oc1=O)CCCN4CCC3` gave a melting point of 181 to 184 °C.

In turn, `COc1ccc(C(=O)CCC(=O)O)cc1` displayed a melting point of 149 °C.

Compound `O=C(O)C(=Cc1ccccc1)C(=Cc1ccccc1)C(=O)O` yielded a melting point of 223 °C.

`O=Cc1cccc2ccccc12` had a melting point of 33.5 °C.

As for `CCCCC(C)C(C)C` (stereo not given), the melting point is -116 °C.

Regarding `OCc1cccc2ccsc12`, the melting point fell in the range of 76.5 to 78 °C.

Take `O=C(Nc1ccccc1)N(Cc1ccc(Cl)cc1)C1CCCC1`: the melting point is 132 °C.

With `O=C(O)c1csc(-c2ccc(C(F)(F)F)cc2)n1`, the melting point is 186 to 188 °C.

With `Cc1ccc(Cl)c(Nc2ccccc2C(=O)O)c1Cl`, the melting point amounted to 257 °C.

In the case of `Cc1cc(C(=O)O)c(C)n1-c1ccc(Cl)cc1`, the melting point was found to be 230 °C.

Regarding `COc1cc(O)cc(OC)c1`, the melting point is 46 °C.

In turn, `Nc1ccc([N+](=O)[O-])c(F)c1` had a melting point of 160 °C.

With `CNC(=O)Sc1ccc(OS(C)(=O)=O)cc1`, the melting point was found to be 138 °C.

Regarding `O=C=Nc1ccc(Cl)cc1Cl`, the melting point was in the range of 59 to 60 °C.

`O=[N+]([O-])c1cc([N+](=O)[O-])c(Nc2ccc3c(c2)OCCOCCOCCOCCO3)c(C(F)(F)F)c1` registered a melting point of 171 °C.

`CC(C)(C)c1cccc2ccccc12` displayed a melting point of -11.3 °C.

Consider `COc1cc(Br)cc(OC)c1OC`, for which the melting point turned out to be 78.5 °C.

Compound `C1=C(c2ccccc2)CCCC1` displayed a melting point of -11 °C.

In the case of `Clc1n[nH]c2ccccc12`, the melting point came out at 149 °C.

Regarding `O=C1C=CC(=Nc2ccc(O)cc2)C=C1`, the melting point is 160 °C.

In turn, `COc1ccccc1C1(C)CCc2oc3c(Br)cc(Br)cc3c2-c2oc(C)cc21` (stereo not given) registered a melting point of 194 °C.

Take `Cc1ccc(O)c(C(O)Cc2ccccc2)c1` (stereo not given): the melting point was 83 °C.

With `COc1cc(OCc2ccccc2)ccc1C=O`, the melting point worked out at 96 °C.

`CC1(C)OC(=O)C(=C2CCCCCN2)C(=O)O1`: the melting point was in the range of 147 to 149 °C.

`Cn1cc(NC(=O)OC(C)(C)C)cc1C(=O)O`: the melting point was 138 to 143 °C.

`CC1(c2ccccc2)C(=O)NC(=O)NC1=O` had a melting point of 224 °C.

The compound `S=c1[nH]ccn1-c1ccccc1` returned a melting point of 177 to 179 °C.

In turn, `COc1ccc(C(=O)O)cc1OCc1ccccc1` registered a melting point of 180 °C.

`CCOC(=O)NN` came in with a melting point of 46 °C.

In the case of `CN(C)CCc1c[nH]c2ccccc12`, the melting point was 46 °C.

For the compound `CCOc1n[nH]c(=O)c(Br)c1Br`, the melting point worked out at 206 °C.

`Cn1c(S(=O)(=O)O)nc2ccccc21`: the melting point worked out at 341 °C.

`CCCCC[C@H]1CC[C@H](C(=O)O)CC1` returned a melting point of 52 to 56 °C.

`Nc1cc([N+](=O)[O-])ccc1Br` had a melting point of 139 °C.

Turning to `Clc1cccc(O[Si]23OCCN(CCO2)CCO3)c1`, the melting point was 245 °C.

On to `O=Cc1c[nH]c2cc(Br)ccc12`, for which the melting point fell in the range of 202 to 203 °C.

As for `C=C(Br)CC1(C(C)CC)C(=O)NC(=O)NC1=O` (stereo not given), the melting point came to 132 °C.

For `NCc1ccc2sccc2c1`, the melting point lay in the range of 41 to 43 °C.

`CC1=C(C)C(=O)C(C(CCCCCC(=O)O)c2ccccc2)=C(C)C1=O` (stereo not given) gave a melting point of 128 °C.

Regarding `O=S(=O)(N(c1ccccc1)S(=O)(=O)C(F)(F)F)C(F)(F)F`, the melting point was in the range of 99 to 105 °C.

As for `CC(C)CCCC(C)C1CCC2C3CC(O)C4=CC(=O)CCC4(C)C3CCC12C` (stereo not given), the melting point is 189 to 193 °C.

The compound `COc1nn(CSP(=S)(OC)OC)c(=O)s1` came in with a melting point of 39.5 °C.

The compound `O=C(CBr)c1ccc(-c2ccccc2)s1` registered a melting point of 115 to 117 °C.

For `COc1ccc(-n2c(=S)[nH]c3ccccc3c2=O)cc1`, the melting point lay within 307 to 310 °C.

As to `O=[N+]([O-])c1cccc2cccc(Cl)c12`, the melting point amounted to 95.8 °C.

`CC1(C)OC(=O)C2CCCCC21` (stereo not given) had a melting point of 80 °C.

For the compound `CC(=O)Nc1c(C)cc(Cl)cc1Cl`, the melting point lay in the range of 174 to 176 °C.

Compound `CS(=O)(=O)c1ccc(F)c([N+](=O)[O-])c1` came in with a melting point of 152 to 158 °C.

In turn, `CCOC(=O)C1=C(N)Oc2ccc3ccccc3c2[C@H]1c1ccc(C)cc1` displayed a melting point of 201 °C.

`Cc1cc2ccccc2nc1Cl`: the melting point is 83 to 84 °C.

Consider `c1ccc2cc(P(c3ccc4ccccc4c3)c3ccc4ccccc4c3)ccc2c1`, for which the melting point is 228 °C.

In turn, `CC1=NN(CN2CCOCC2)C(=O)/C1=N\Nc1cc(Cl)c(Cl)cc1Cl` displayed a melting point of 175 °C.

`CCCCCCCCCOc1ccc(N)cc1` returned a melting point of 39 °C.

With `O=C1CCC(=O)CC1`, the melting point was 78 °C.

Consider `ICCCCCCCCCCI`, for which the melting point turned out to be 30 °C.

As to `O=[N+]([O-])/C(Br)=C/c1cccc(/C=C(\Br)[N+](=O)[O-])c1`, the melting point came out at 153 °C.

In the case of `FC(F)(F)C(F)(F)C(F)(F)C(F)(F)C(F)(F)C(F)(F)F`, the melting point is -4 °C.

`Cc1[nH]c2c([N+](=O)[O-])cccc2c1C` displayed a melting point of 160 to 165 °C.

For `C#CC(C)(O)CC` (stereo not given), the melting point came to 30.5 °C.

In the case of `Cc1noc(-c2ccccc2)c1N=C=O`, the melting point fell in the range of 79 to 81 °C.

In turn, `Cc1cc(C)c(CO)c(C)c1` displayed a melting point of 87 °C.

`O=C(O)c1cccc(-n2ccnc2)c1` yielded a melting point of 194 to 199 °C.

`C[C@]12CC[C@H]3[C@@H](CCC4CC(=O)CC[C@@]43C)[C@@H]1CC[C@H]2OC=O` (stereo not given in full) had a melting point of 124 °C.

In turn, `c1ccc(-c2cccs2)cc1` yielded a melting point of 34 to 36 °C.

Regarding `O=C1COc2cccnc2N1`, the melting point was 206 °C.

Turning to `CC(=O)N1CCN(c2ccc(OCC3COC(Cn4ccnc4)(c4ccc(Cl)cc4Cl)O3)cc2)CC1` (stereo not given), the melting point is 146 °C.

As for `Nc1ccc2c(c1N)C(=O)c1ccccc1C2=O`, the melting point turned out to be 290 °C.

In the case of `COC(=O)CC(=O)c1cncc(Br)c1`, the melting point lay in the range of 88 to 93 °C.

Take `CC1(C)OC(=O)C(=Cc2ccc(-c3cccc([N+](=O)[O-])c3)o2)C(=O)O1`: the melting point was 179 °C.

On to `Cc1ccccc1NC(=S)C(=O)c1ccccc1`, for which the melting point worked out at 124 °C.

In turn, `C[C@]12CC[C@H]3[C@@H](CCC4=CC(=O)CC[C@@]43C)[C@@H]1CC[C@@H]2C(=O)O` showed a melting point of 254 °C.

As for `Cc1ncc(CSSCc2cnc(C)c(O)c2CO)c(CO)c1O`, the melting point was 219 °C.

With `Cc1nc(C)c(C(=O)O)s1`, the melting point lay within 233 to 235 °C.

Regarding `OCc1cn2ccsc2n1`, the melting point fell in the range of 154 to 155 °C.

As to `CC(=O)c1nn(-c2ccccc2[N+](=O)[O-])c(=NC(=O)c2ccccc2)s1`, the melting point was determined as 204 °C.

Regarding `CCC(=O)OC1(C(=O)CCl)C(C)CC2C3CCC4=CC(=O)C=CC4(C)C3(F)C(O)CC21C` (stereo not given), the melting point worked out at 196 °C.

The compound `O=Cc1ccc(-c2ccc(Cl)cc2)o1` showed a melting point of 128 to 131 °C.

For the compound `O=C(O)C1CC(=O)N(Cc2cccs2)C1` (stereo not given), the melting point fell in the range of 144 to 146 °C.

Compound `CCC(c1ccc(O)cc1)C(CC)c1ccc(O)cc1` (stereo not given) registered a melting point of 187 °C.

For the compound `c1ccc(CCc2ccccn2)cc1`, the melting point was -3 °C.

In turn, `COc1cccc2c1C(=O)c1c(O)c3c(c(O)c1C2=O)CC(O)(C(=O)CO)CC3OC1CC(N)C(O)C(C)O1` (stereo not given) yielded a melting point of 345 °C.

For the compound `O=[N+]([O-])c1c[nH]cn1`, the melting point worked out at 303 °C.

In turn, `O=C(C=Cc1ccccc1)OCC=Cc1ccccc1` showed a melting point of 44 °C.

`N#Cc1ccc(N)c(C(F)(F)F)c1` had a melting point of 62 °C.

Turning to `ClCc1ccc(OCc2ccccc2)c(OCc2ccccc2)c1`, the melting point lay in the range of 41 to 44 °C.

For the compound `CC(C)[C@H](O)C(=O)O`, the melting point is 65 to 68 °C.

In turn, `Cc1cc(N)n[nH]1` had a melting point of 41 to 43 °C.

Turning to `Cc1ccc2[nH]ccc2c1`, the melting point came to 60 °C.

Consider `COc1cccnc1Cl`, for which the melting point amounted to 47 °C.

In turn, `CS(=O)(=O)Nc1ccc([N+](=O)[O-])cc1Oc1ccccc1` had a melting point of 144 °C.

In the case of `N#CC(=Cc1ccccc1Cl)c1nc2ccccc2s1`, the melting point amounted to 139 °C.

The compound `Oc1cccc2sccc12` showed a melting point of 79.8 °C.

In turn, `O=C(O)c1csc(-c2cccc(Cl)c2)n1` showed a melting point of 206 to 207 °C.

In the case of `CCCCCCC(O)CC=CCCCCCCCC(=O)O` (stereo not given), the melting point is 5.5 °C.

In turn, `CC(C)(c1cc(Cl)c(O)c(Cl)c1)c1cc(Cl)c(O)c(Cl)c1` showed a melting point of 135 °C.

The compound `Cn1ncc2c(NCCN)ncnc21` returned a melting point of 297 °C.

`Cc1ccc(/N=N/c2c(N)nn3c(C)cc(=O)[nH]c23)cc1` yielded a melting point of 285 °C.

In turn, `CC12CCC(O)CC1CCC1C2CCC2(C)C1CCC2(C)O` (stereo not given) yielded a melting point of 164 °C.

For `CCCCCCCCCCCCCCCCCC(=O)OCCC(C)C`, the melting point is 25.5 °C.

`CC(=O)CCc1cc2c(cc1N=Nc1ccccc1C(=O)O)CCC(C)N2` (stereo not given) gave a melting point of 157 °C.

`Nc1cc(-c2ccc(F)cc2)nc(N)n1`: the melting point lay in the range of 164 to 166 °C.

In the case of `Cc1ccc(C)c(C#N)c1`, the melting point is 13 to 14 °C.

The values above are taken from a melting point compilation (Tetko et al.).
